Assays:
[1] = tested on: SORT1-mediated PGRN endocytosis; test: Quantitative DyL-rPGRN endocytosis assay in COS-1^SORT1 cells; format: cell-based, human; settings: COS-1^SORT1, 5 μM binder pre-incubated 1 h with rPGRN, 1 h endocytosis
Procedure: COS-1 cells seeded on a 96-well black plate 1 day before were transfected with pCMV-SORT1 vector. After 24 h, cells were treated with fluorescence-tagged rPGRN (DyL-rPGRN) pre-labeled by DyLight™ 594 antibody labeling kit (Thermo Scientific). The DyL-rPGRN was diluted in OptiMEM to tested concentrations and incubated with the cells for 1 h for endocytosis. The cells were then washed with cold PBS and then fixed by 4% paraformaldehyde. After washing twice, each well was filled with PBS prior scanning. The total PGRN fluorescent signal from the cells was obtained by a plate reader with 593/618 nm (Ex/Em) settings. The endocytosis signal was normalized by the total nuclei signal obtained by staining with a Hoechst 33342 dye. Baseline endocytosis signal was defined as a signal from medium-only-treated cells, whereas the 100% endocytosis level was set as the signal obtained from cells treated with 50 nM DyL-rPGRN. For testing SORT1 ligands, DyL-rPGRN and the peptide were added simultaneously to the cells. For testing of PGRN binders, the binder was pre-incubated with DyL-rPGRN for 1 h before adding to the cells. For qualitative analysis, images from each well were captured by BD Pathway 855 system using a 20× magnification setting.

[2] = molecular target: PGRN588–593 peptide (Homo sapiens, UniProt P28799); test: Epic biochemical binding assay (resonant waveguide grating); settings: PGRN588–593 peptide immobilized; PBS with 5% DMSO; 30 min binding; n = 4
Excerpt: page 6: SUPPLEMENTARY METHODS AND RESULTS Epic(R) biochemical assay and compound library screen Essentially, the Epic® is a spectrophotometric reader that uses a resonant waveguide grating detection mechanism to detect biochemical interactions (Fig.5A). In brief, the waveguide grating biosensor in each well of the 384-well assay plate intercepts broadband light and measures changes in resonant wavelengths (in picometers, pm) when a ligand binds to the target protein immobilized on the biosensor. To identify chemical binders of the PGRN588-593 peptide, we immobilized the peptide onto the biosensor surface of Epic® assay plates using an amine- coupling method, and screened 4,800 compounds. For immobilization, 150 µg/ml peptide diluted in a 20 mM sodium acetate buffer, pH 5, was added to the assay plate to incubate for overnight at 4 °C. The plate was then washed in binding buffer (PBS with 5% DMSO) for three times and equilibrated in the binding buffer for 6 h in the Epic® carousal. During the equilibration period, compounds from the library stock plate (CNS-set compound library from Chembridge®) were diluted to 50 µM in binding buffer. Each compound was tested in quadruplicate. After the equilibration, a Baseline Reading was acquired by the Epic® spectrophotometer. […] After mixing and a 30 min ‘binding’ period, a Final Reading was acquired. […]

[3] = tested on: PGRN(588–593) peptide; test: UV-absorption titration of BVFP with PGRN(588–593) peptide; format: binding, human; settings: 20 μM BVFP, PGRN(588–593) peptide titrated
Procedure: Stock solutions of compound BVFP (20 mM) and PGRN(588–593) peptide (12.96 mM) were prepared in DMSO and water, respectively. For the UV absorption experiment, both components were diluted to give final concentrations of 20 μM BVFP and 324 μM peptide. The interaction between BVFP and the PGRN(588–593) peptide was monitored by scanning over the UV absorbance range of 200–800 nm on a Cary 3 Bio UV–visible spectrophotometer (Varian), as a small amount of KKGRN peptide (0.1 equivalence/1 μl per addition) was titrated into the 20 μM BVFP sample. In addition to baseline correction with DMSO, a control titration experiment using water in place of the PGRN(588–593) peptide was performed under identical conditions in order to correct for potential spectral changes owing to sample dilution.

[4] = tested on: SORT1–PGRN interaction; test: MSD-based SORT1–PGRN interaction assay; format: biochemical, human; settings: BVFP 20 and 200 μM pre-incubated 30 min with 200 nM N-rP
Procedure: M17 cells were transfected with pCMV-SORT1-Flag for 48 h. Then, the cell lysate was harvested by the same method used in the co-immunoprecipitation assay. Expression of SORT1-Flag protein was confirmed by western blot. MSD plate was first coated with the Flag M2 antibody (Sigma). Following an overnight incubation at 4°C, the plate was blocked for 2 h and then washed prior to addition of 5 µg/well of lysate protein containing SORT1-Flag protein. After overnight incubation at 4°C, it was then washed and added with 200 nM of either N-6His- or C-6His-tagged rPGRN pre-incubated with either vehicle, 20 µM or 200 µM of BVFP, for 30 min at room temperature. Then plate was then incubated for 2 h, washed and incubated with a mixture of PCDGF antibody and a SULFO-TAG-labeled anti-rabbit IgG antibody for 2 h. After final wash, the plate was read by the MSD Sector Imager 2400.

[5] = tested on: PGRN endocytosis in WT-hESCs; test: DyL-rPGRN endocytosis in wild-type hESCs; format: cell-based; settings: Homo sapiens; WT-hESC, BVFP, same conditions as COS-1^SORT1 (5 μM)
Excerpt: (§1) To determine whether BVFP, when bound to PGRN, disrupts full-length PGRN and SORT1 binding, we devised a SORT1-dependent rPGRN precipitation assay utilizing the Meso-Scale Discovery (MSD) system (Supplementary Material, Fig. S4A and B). […] To include a higher-affinity PGRN588–593 motif binder as a positive control, an antibody targeting the motif, PGRN-CT antibody, was made for validating the approach (Fig. 5F). […] First, we found SORT1 was abundantly expressed in the wild-type hESCs (Fig. 5H). Similar to the results from COS-1^SORT1 cells, BVFP and PGRN-CT antibody inhibited endocytosis of DyL-rPGRN by 22 and 39%, respectively, under the same experimental conditions in wild-type hESCs (Fig. 5I left).
(§2) COS-1 cells seeded on a 96-well black plate 1 day before were transfected with pCMV-SORT1 vector. After 24 h, cells were treated with fluorescence-tagged rPGRN (DyL-rPGRN) pre-labeled by DyLight™ 594 antibody labeling kit (Thermo Scientific). The DyL-rPGRN was diluted in OptiMEM to tested concentrations and incubated with the cells for 1 h for endocytosis. The cells were then washed with cold PBS and then fixed by 4% paraformaldehyde. After washing twice, each well was filled with PBS prior scanning. The total PGRN fluorescent signal from the cells was obtained by a plate reader with 593/618 nm (Ex/Em) settings. […]

[6] = tested on: PGRN endocytosis in SORT1^KO-hESCs; test: DyL-rPGRN endocytosis in SORT1^KO-hESCs; format: cell-based, human; settings: SORT1^KO-hESC
Excerpt: as §1, §2

[7] = tested on: GRN expression; settings: HDAC inhibitor; cited from earlier work
Excerpt: While new strategies designed to upregulate PGRN levels have emerged, challenges remain in terms of limiting off-target effects. […] However, because HDAC and V-ATPase inhibitors can potentially affect a wide-range of genes at transcriptional and po ...

[8] = tested on: elastase; test: Elastase digestion of rPGRN in cell culture media; format: in vitro ADME; settings: in vitro reaction with EL in culture media; compared with WT rPGRN, western blot
Procedure: PGRN, SORT1, GFP, GAPDH and β-actin proteins were analyzed using 10% Tris–glycine polyacrylamide gel by SDS–PAGE. After electrophoresis, proteins on gel were transblotted to PVDF membranes followed by standard immunoblotting protocols.

[9] = tested on: SORT1; test: PGRN endocytosis in M17 cells overexpressing SORT1; format: cell-based; settings: M17 cells overexpressing SORT1, after EL reaction
Procedure: M17 cells seeded in 12-well culture plates (western blot) or on glass coverslips in 24-well culture plate (immunofluorescence) were transfected with pEGFP-N1 (Clontech) or pCMV-SORT1 (OriGene) vectors. Next day, the cells were changed into serum-free medium 1 h before addition of rPGRN (500 ng/ml) and treated for 60 min. The cells were then put on ice and washed with cold PBS. For western blot, cells were lysed in cold M-Per protein extraction buffer followed by standard procedures as mentioned. For immunofluorescence analyses, cells were fixed in 4% paraformaldehyde solution followed by PBS washes. The cells were then incubated in blocking buffer (PBS, 5% goat serum, 0.1% saponin) for 1 h at room temperature followed by incubation in primary antibody overnight at 4°C. The cells were incubated with secondary antibodies (1:1000) for 1 h at room temperature. The coverslips were then mounted onto slides and waited overnight before analysis. Image analysis was performed by Zeiss LSM 510 META confocal microscope using 60× magnification setting.

## O=c1nc(C=Cc2cccc(Br)c2)cc(C(F)(F)F)[nH]1 [BVFP, 4-[2-(3-bromophenyl)vinyl]-6-(trifluoromethyl)-2(1H)-pyrimidinone]
[1]
  inhibition of DyL-rPGRN endocytosis: 23%
[2]
  Kd: 20 µM
[3]
  UV-absorption change upon peptide titration: shift in the ultraviolet(UV)-absorption spectra of BVFP and distinct changes of absorption intensities
  isosbestic point: 313 nm
[4]
  inhibition of rPGRN binding to immobilized SORT1: dose-dependent inhibition of rPGRN binding to immobilized SORT1
[5]
  inhibition at 5 µM: 22%
[6]
  effect on DyL-rPGRN endocytosis: no effect on DyL-rPGRN endocytosis

## O=C(CCCCCCC(=O)Nc1ccccc1)NO [suberoylanilide hydroxamic acid]
[7]
  GRN expression: enhancer of GRN expression

B1: A588G-rPGRN: rPGRN with Ala-to-Gly mutation at the A588 elastase cleavage site (protein)
chain: TRCPDGQFCPVACCLDPGGASYSCCRPLLDKWPTTLSRHLGGPCQVDAHCSAGHSCIFTVSGTSSCCPFPEAVACGDGHHCCPRGFHCSADGRSCFQRSGNNSVGAIQCPDSQFECPDFSTCCVMVDGSWGCCPMPQASCCEDRVHCCPHGAFCDLVHTRCITPTGTHPLAKKLPAQRTNRAVALSSSVMCPDARSRCPDGSTCCELPSGKYGCCPMPNATCCSDHLHCCPQDTVCDLIQSKCLSKENATTDLLTKLPAHTVGDVKCDMEVSCPDGYTCCRLQSGAWGCCPFTQAVCCEDHIHCCPAGFTCDTQKGTCEQGPHQVPWMEKAPAHLSLPDPQALKRDVPCDNVSSCPSSDTCCQLTSGEWGCCPIPEAVCCSDHQHCCPQGYTCVAEGQCQRGSEIVAGLEKMPARRASLSHPRDIGCDQHTSCPVGQTCCPSLGGSWACCQLPHAVCCEDRQHCCPAGYTCNVKARSCEKEVVSAQPATFLARSPHVGVKDVECGEGHFCHDNQTCCRDNRQGWACCPYRQGVCCADRRHCCPAGFRCAARGTKCLRREAPRWDAPLRDPGLRQLL
modifications: left off: His6, end not stated, state not stated
notes: rPGRN with Ala-to-Gly mutation at the A588 elastase cleavage site
[8]
  resistance to elastase (residual full-length protein in medium): more resistant to EL activity
[9]
  uptake after elastase treatment: endocytosed by cells to a similar extent compared with no EL control
